This is an account of results in publication PMC10591299, “Targeting SHP2 with an Active Site Inhibitor Blocks Signaling and Breast Cancer Cell Phenotypes” (ACS Bio & Med Chem Au, 2023).

One assay addresses T1, SHP1 (Homo sapiens, UniProt P29350).
T1 construct: The GST fusion PTP domains of SHP1 and PTP1B were expressed and purified in a fashion similar to that of SHP2; GST; made in house
T1 sequence (P29350 244-515 limits assumed): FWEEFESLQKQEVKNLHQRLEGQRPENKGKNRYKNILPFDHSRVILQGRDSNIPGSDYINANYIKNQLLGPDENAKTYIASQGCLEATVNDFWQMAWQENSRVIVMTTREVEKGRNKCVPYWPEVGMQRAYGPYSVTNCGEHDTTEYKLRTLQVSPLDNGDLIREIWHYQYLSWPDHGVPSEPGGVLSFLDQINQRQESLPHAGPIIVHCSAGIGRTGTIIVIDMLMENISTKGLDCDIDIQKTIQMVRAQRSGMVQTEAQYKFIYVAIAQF
Description: PTPase assay, GST-fusion PTP domain of SHP1, DiFMUP substrate. Format: biochemical. The method, then:
After completion of synthesis, both CNBCA and CNBBA were purified on silica gel, and purity was determined by HPLC. The purified compounds were then tested for their effect on the SHP2 enzyme activity and on the activity of the selected control PTPs (SHP1 and PTP1B) by the phosphotyrosyl phosphatase (PTPase) assay as described previously.[30],[31] First, the GST fusion of the PTP domains of SHP2, SHP1, and PTP1B were produced and purified as reported by us previously.[32] The reactions were performed in a buffer containing 10 mM Tris-HCl (pH 7.2), 100 mM NaCl, 1 mM EDTA, 1 mM dithiothreitol (DTT), and 0.01% Tween-20. […] The complete mixture was incubated at 37 °C for 20 min, and fluorescence intensity was measured by the Synergy 4 plate reader at the excitation and emission wavelengths of 360 and 460 nm, respectively. The half inhibitory concentration (IC50) value of each compound was calculated and plotted using Graphpad Prism software. […]
We used the PTPase assay described previously[30],[31] to evaluate the effect of the newly synthesized compounds on the enzymatic activity of SHP2, SHP1, and PTP1B. […] The mixtures were incubated at 37 °C for 20 min and transferred to 96 well plates, and the fluorescence intensity was measured by a Synergy 4 plate reader at the excitation and emission wavelengths of 360 and 460 nm, respectively. […]

A further assay concerns BT474 cells. Nature of the assay: Cell growth in 2D culture, BT474. Format: cell-based. The conditions noted are these: BT474, 500 nM, 72 h; vehicle treated cells grew to confluency. The procedure:
Since SHP2 is essential for the growth and transformation of BC cells,[8],[9],[11] we determined the effect of SHP2 inhibition with CNBCA in 2D and 3D culture systems. For the effect on cell growth, BC cells (BT474 and MDA-MB468) were seeded in 2D culture and treated with a single concentration of CNBCA (500 nM), the concentration that provided a 50% inhibition of SHP2 mediated signaling in BT474 cells. Images were collected at the start and every 24 h for a total of 72 h (3 days). […] For effect on anchorage independent growth, approximately 10^6 cells were seeded in soft agar as described previously,[24] and treated with CNBCA at 500 nM concentration for 10 days with refeeding and adjustment of compound concentration. […] Finally, the effect of CNBCA on cancer stem cell properties was determined by the suspension assay, in which only cells with stem-like properties only can grow and form mammospheres.[7],[24],[36] Approximately 10^6 cells were seeded in nonadherent 6 cm plates and treated with CNBCA (500 nM) for 10 days with complementation of media and drug concentration.

On to `CCCCCCCCCOc1ccc(-c2ccc(C(=O)O)cc2)cc1CCCC(=O)O` [CNBCA, 3′-(3-carboxypropyl)-4′-(nonyloxy)-[1,1′-biphenyl]-4-carboxylic acid], for which the IC50 on SHP1 (PTP domain, 1 nM enzyme, 35 μM DiFMUP) was found to be 34.6 µM. The “selectivity ratio SHP1 versus SHP2” value on SHP1 (SHP2 IC50 as reference) worked out at 39.77 fold. Also, the “cell growth in 2D culture” value in the assay on BT474 cells is “half-confluent”.
